Experimental data: patent US8669274B2, “Metalloenzyme inhibitor compounds” (Viamet Pharmaceuticals, Inc., priority 2010, dated 2014)
pIC50: −log10 of the molar value.

What was measured:
[1] = molecular target: T1, CYP17 (Rattus norvegicus, UniProt P11715); test: Inhibition of CYP17 (pooled rat testicular microsomes); format: biochemical
T1 construct: from tissue; host or cells: pooled rat testicular microsomes
T1 sequence (P11715 1-507): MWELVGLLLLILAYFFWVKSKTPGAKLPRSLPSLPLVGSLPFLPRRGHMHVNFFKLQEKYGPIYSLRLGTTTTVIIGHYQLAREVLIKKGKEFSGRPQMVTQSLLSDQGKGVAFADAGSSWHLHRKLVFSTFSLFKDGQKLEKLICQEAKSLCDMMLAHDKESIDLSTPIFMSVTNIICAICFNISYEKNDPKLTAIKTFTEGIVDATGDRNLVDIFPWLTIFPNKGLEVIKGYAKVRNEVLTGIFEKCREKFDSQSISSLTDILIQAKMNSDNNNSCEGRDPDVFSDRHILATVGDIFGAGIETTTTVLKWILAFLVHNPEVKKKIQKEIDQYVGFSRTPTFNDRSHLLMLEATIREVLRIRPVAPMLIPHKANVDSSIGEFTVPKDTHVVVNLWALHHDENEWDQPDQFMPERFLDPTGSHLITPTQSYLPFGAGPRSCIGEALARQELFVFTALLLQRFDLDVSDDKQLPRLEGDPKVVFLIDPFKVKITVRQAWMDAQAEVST
Method: CYP17 activity was assayed according to the following procedure. […] The individual test compound and isozyme inhibitor solutions were then diluted 20-fold with deionized water (50:950 v/v) to concentrations of 135, 27, 4.5, 0.9, 0.15, 0.03 and 0.005 μM. The percent of organic solvent attributable to the test compound or inhibitor mixture in the final reaction mixture is 1%. Pooled rat testicular microsome suspension (20 mg/mL) was diluted with phosphate buffer to obtain a 1.25 mg/mL suspension. A solution of NADPH was prepared in phosphate buffer at a concentration of 2.5×. A stock solution of the substrate was prepared in DMSO:MeCN (50:50 v/v), mixed, and diluted in phosphate buffer to obtain a single solution containing the substrate at 5 μM. The percent of organic solvent attributable to substrate mixture in the final reaction mixture is 1%. Substrate solution and microsome suspension were combined in a 1:1 volume ratio, mixed, and distributed to reaction wells of a PCR plate. Individual test compound or the inhibitor solution at each concentration was added to the wells and mixed by repetitive aspirate/dispense cycles. For active controls, blank test compound diluent was added in place of test compound solution. Reaction mixtures were allowed to equilibrate at 37° C. for approximately two minutes before adding NADPH solution to initiate reaction, followed by pipette mixing of reaction mixture.

[2] = molecular target: CYP2C9 (Homo sapiens, UniProt P11712); test: Inhibition of liver cytochrome P450 enzymes (pooled human liver microsomes), CYP2C9
Chain of CYP2C9 (P11712 whole entry): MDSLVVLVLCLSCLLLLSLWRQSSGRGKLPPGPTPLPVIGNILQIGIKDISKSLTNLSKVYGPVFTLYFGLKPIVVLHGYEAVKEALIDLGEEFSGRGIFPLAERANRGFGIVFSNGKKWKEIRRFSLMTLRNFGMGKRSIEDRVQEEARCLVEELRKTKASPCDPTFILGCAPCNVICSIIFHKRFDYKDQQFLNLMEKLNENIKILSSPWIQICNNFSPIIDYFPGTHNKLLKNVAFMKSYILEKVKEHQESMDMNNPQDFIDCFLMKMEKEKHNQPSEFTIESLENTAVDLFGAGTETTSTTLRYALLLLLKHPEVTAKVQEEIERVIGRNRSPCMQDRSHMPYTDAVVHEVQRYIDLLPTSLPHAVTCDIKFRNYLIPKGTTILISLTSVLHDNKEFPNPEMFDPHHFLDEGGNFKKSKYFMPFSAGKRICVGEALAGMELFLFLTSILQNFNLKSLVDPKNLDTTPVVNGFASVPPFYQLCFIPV

[3] = molecular target: CYP3A4 (Homo sapiens, UniProt P08684); test: Inhibition of liver cytochrome P450 enzymes (pooled human liver microsomes), CYP3A4
Chain of CYP3A4 (P08684 whole entry): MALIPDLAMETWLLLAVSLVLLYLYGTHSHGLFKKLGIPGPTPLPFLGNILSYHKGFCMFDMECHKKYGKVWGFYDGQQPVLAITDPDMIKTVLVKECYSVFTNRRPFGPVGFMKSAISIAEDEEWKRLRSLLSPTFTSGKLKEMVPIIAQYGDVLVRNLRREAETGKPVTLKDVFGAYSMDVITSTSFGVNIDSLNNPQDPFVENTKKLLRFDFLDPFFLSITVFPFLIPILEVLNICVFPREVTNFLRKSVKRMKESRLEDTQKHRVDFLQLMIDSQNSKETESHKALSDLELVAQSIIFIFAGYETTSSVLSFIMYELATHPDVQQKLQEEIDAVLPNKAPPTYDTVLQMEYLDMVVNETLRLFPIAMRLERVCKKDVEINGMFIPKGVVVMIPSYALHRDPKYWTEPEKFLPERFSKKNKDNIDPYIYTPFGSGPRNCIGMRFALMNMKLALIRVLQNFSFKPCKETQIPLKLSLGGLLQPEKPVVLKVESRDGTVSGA

[4] = molecular target: CYP2C19 (Homo sapiens, UniProt P33261); test: Inhibition of liver cytochrome P450 enzymes (pooled human liver microsomes), CYP2C19
Chain of CYP2C19 (P33261 whole entry): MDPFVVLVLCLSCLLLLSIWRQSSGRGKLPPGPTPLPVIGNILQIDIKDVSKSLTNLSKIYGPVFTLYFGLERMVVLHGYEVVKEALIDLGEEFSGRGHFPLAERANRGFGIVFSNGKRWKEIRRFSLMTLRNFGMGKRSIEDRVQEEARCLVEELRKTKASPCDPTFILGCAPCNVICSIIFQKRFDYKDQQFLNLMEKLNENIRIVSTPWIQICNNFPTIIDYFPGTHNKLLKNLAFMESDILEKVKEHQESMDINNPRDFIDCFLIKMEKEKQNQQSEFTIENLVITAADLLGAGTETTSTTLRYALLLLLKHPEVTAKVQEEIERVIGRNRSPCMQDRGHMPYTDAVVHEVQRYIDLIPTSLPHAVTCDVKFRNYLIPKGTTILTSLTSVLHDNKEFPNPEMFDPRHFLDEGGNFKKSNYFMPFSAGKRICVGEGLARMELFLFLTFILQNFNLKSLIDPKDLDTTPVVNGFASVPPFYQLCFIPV

Row | SMILES | pIC50 [1] | pIC50 [2] | pIC50 [3] | pIC50 [4]
1 | CC(=O)N1CCN(c2ccc(OCC3COC(Cn4ccnc4)(c4ccc(Cl)cc4Cl)O3)cc2)CC1 (centres unmarked) [Ketoconazole, ketoconazole, reference compound] | 6.40 |  |  | 
2 | CC(C)C(c1ccc2cc(OCC(F)(F)F)ccc2n1)n1ccnn1 (centres unmarked) [Example 3, 2-(2-Methyl-1-(1H-1,2,3-triazol-1-yl)propyl)-6-(2,2,2-trifluoroethoxy)quinoline] | 7.52 | 5.49 | 4.72 | 5.30
3 | CC(C)C(c1ccc2cc(-c3ccc(F)cc3)ccc2n1)n1ccnn1 (centres unmarked) [Example 4, 6-(4-Fluorophenyl)-2-(2-methyl-1-(1H-1,2,3-triazol-1-yl)propyl)quinoline] | 7.38 | 4.62 | 4.08 | 4.51
4 | CC(C)C(c1ccc2cc(OCC(F)(F)F)c(OCC(F)(F)F)cc2c1)n1ccnn1 (centres unmarked) [Example 2, 1-(1-(6,7-bis(2,2,2-trifluoroethoxy)naphthalen-2-yl)-2-methylpropyl)-1H-1,2,3-triazole] | 6.32 | 5.54 | < 4.22 | 5.36
5 | COc1cc2ccc(C(C(C)C)n3ccnn3)cc2cc1OC (centres unmarked) [Example 1, 1-(1-(6,7-dimethoxynaphthalen-2-yl)-2-methylpropyl)-1H-1,2,3-triazole] | 7.30 | 5.19 | 4.96 | 5.08
